Assay results as given in patent US10654890B2, “Cyclic peptide derivative, method for preparing same and composition thereof” (priority 2014, dated 2020).
Counter-ions that a name gives are not always drawn.

How the values were obtained:
[1] = tested on: senescence-accelerated model mouse SAMP8; test: Damaged area ratio of body hair surface by scanning probe microscope; format: in vivo
Text: As for the apparatus, tapping mode scanning probe microscope (SPM: SPA400, Hitachi High-Tech Science Corporation) was used.
As a sample, body hair in head and neck part of a mouse was collected by plucking from the origin, and the observation was made by using the tapping mode scanning probe microscope described above.

[2] = tested on: human leukemia cells (K562); test: Cell proliferation test, human leukemia cells; format: cell-based; settings: 2.5 μM and 25 μM, FIG. 10
Protocol: (§1) To see whether or not the astrocyte proliferation accelerating activity of the cyclic peptide derivative is a specific proliferative activity that is limited only to an astrocyte or it is based on a common cell proliferative activity, investigations were made by using normal human dermal fibroblasts (NHDF), human liver cancer cells (HepG2), and human leukemia cells (K562).
(§2) Seeding of each cell on a 96 well plate was carried out by adding 100 μl of a cell suspension in which normal human dermal fibroblasts are prepared at 2.5×10^4 cells/ml or human liver cancer cells and human leukemia cells are prepared at 5×10^4 cells/ml. Since the cyclic peptide derivative is added after dissolving it in PBS (−), only PBS (−) was added as a control.

[3] = tested on: culture astrocyte; test: Astrocyte proliferative activity test (BrdU cell proliferation ELISA); format: cell-based, mouse
Protocol: A pregnant ICR female mouse was purchased from Japan SLC, Inc., and a neonatal mouse 24 to 48 after birth was used for the test.
A neonatal ICR mouse (24 to 48 after birth) was sufficiently sterilized with 70% ethanol, immersed in 30 ml of PBS (−) in a 100 mm dish (diameter of 100 mm, Orange Scientific) for cell culture, and then placed in a clean bench. The neonatal mouse was subjected to cervical dislocation using tweezers and euthanized. Head of the neonatal mouse was open and the entire brain was removed. The obtained brain was transferred to a 100 mm dish for cell culture in which 15 ml of high glucose Dulbecco's modified Eagle medium (HG-D-MEM, Wako Pure Chemical Industries, Ltd.) is added. By using tweezers, the olfactory bulb, median eminence, and meninges were removed in the medium to obtain only a cerebrum having hippocampus. Subsequently, the obtained cerebrum was transferred to a 100 mm dish for cell culture added with 10 ml of HG-D-MEM, and using a scalpel, the cerebrum was finely cut to be 1 mm^2 or less. The cerebrum after cutting was transferred, together with the medium, to a 50 ml conical tube (TPP), and after allowing it to stand for 2 minutes, the supernatant was removed. Subsequently, the cerebrum after cutting was added with 4 ml of fresh HG-D-MEM, and after further adding 400 μl of 2.5% trypsin (SIGMA) and 40 μl of 1% DNase I (SIGMA), the cerebrum was incubated in a water bath at 37° C. for 10 minutes under intermittent stirring. Subsequently, to the cerebrum after cutting, 10 ml of HG-D-MEM (10% FBS) was added to terminate the reaction of trypsin followed by centrifuge for 3 minutes at 1,000×g using a centrifuge (H-9R, KOKUSAN Co., Ltd.). The supernatant was collected by an electric pipette, 10 ml of HG-D-MEM (10% FBS) was added to a precipitated cell mass, and pipetting using a sterile pipette was carried out several times until the cell mass is not observed. To remove the remaining cell mass from this cell dispersion, the cell dispersion was passed through a cell strainer (pore diameter of 100 μm, BD Falcon™), and the number of cells in the cell dispersion which has passed through the cell strainer was counted by using a cell counting plate. An adjustment was made with HG-D-MEM (10% FBS) such that the number of cells is 6.0×10^5 cells/ml. After the adjustment of the number of cells, the cell dispersion was seeded, in an amount of 7 ml for each, to a Poly-D-Lysine Cellware 100 mm Dish (PDL 100 mm dish, BD Falcon™). 96 Hours after the seeding, the medium was removed once using an aspirator, and after briefly washing the inside of a 100 mm PDL dish with 10 ml of PBS (−), the medium exchange was carried out by newly adding 7 ml of HG-D-MEM. The above method and the astrocyte preparation described below were carried out based on the method of McCarthy and de Vellis (1980, Non Patent Literature 30).
72 Hours after the medium exchange, the 100 mm PDL dish seeded with the cell broth was removed from the incubator, and tightly covered using a parafilm and fixed by overlaying 3 to 4 dishes. The resultant was cultured by shaking using a bioshaker (MULTI SHAKER MMS, INCUBATOR FMS/EYELA) under a condition including 37° C., 100 rpm, and 20 hours, and the neuronal cells, cell debris, dead cells or the like were liberated. At that time, in the inside the 100 mm PDL dish, only the astrocyte as a glial cell in central nervous system other than neuron was adhered (hereinbelow, described as culture astrocyte). After the shaking, the 100 mm PDL dish was transferred to a clean bench, the supernatant was removed by an aspirator and washed with 10 ml of PBS (−), and after adding 1 ml of 2.5% trypsin (SIGMA) using a Pasteur pipette, the dish was left to stand in an incubator for 10 minutes. The 100 mm PDL dish was again brought back to the clean bench, and added with 10 ml of Dulbecco's modified Eagle medium (D-MEM, Wako Pure Chemical Industries, Ltd.) (10% FBS). […]

[4] = tested on: human liver cancer cells (HepG2); test: Cell proliferation test, human liver cancer cells; format: cell-based; settings: 2.5 μM and 25 μM, FIG. 10
Protocol: as §1, §2

SMILES | damage ratio on a surface of mouse body hair ([1]; SAMP8, oral 2.5 μg/kg/day) | damage ratio on a surface of mouse body hair ([1]; SAMP8, oral 25 μg/kg/day) | inhibitory activity on cell proliferation [2] | astrocyte proliferation compared to the control group ([3]; 25 μM, FIG. 7) | astrocyte proliferation accelerating activity ([3]; 0.1, 1, 5, 10, 25, and 50 μM, 24 hours exposure, FIG. 6) | astrocyte proliferative activity ([3]; extracts and fractions of the isolation and purification steps, listed as F3-10-4-5-3) | astrocyte proliferative activity ([3]; extracts and fractions of the isolation and purification steps, listed as F-3-10-4-5-3) | inhibitory activity on cell proliferation [4] | astrocyte proliferative activity ([3]; 25 μM, FIG. 8 and FIG. 9)
CCC1(C)Oc2cc(ccc2O)C(O)C(NC)C(=O)NC(C(C)C)C(=O)NC1C(=O)NC(CCC(=O)O)C(=O)O (stereo not drawn) [cyclic peptide derivative] | lowered to the same level as those of a mouse with normal aging | lowered to the same level as those of a mouse with normal aging | a strong inhibitory activity on cell proliferation was observed | about 12 times | observed with concentration dependency | significant astrocyte proliferative activity | containing the components with an astrocyte proliferative activity | a strong inhibitory activity on cell proliferation was observed | 
COc1cc2c(cc1OC)C(=O)C(CC1CCN(Cc3ccccc3)CC1)C2 (stereo not drawn) [donepezil hydrochloride, reference compound] |  |  |  |  |  |  |  |  | no significant astrocyte proliferative activity was observed
